# Data published in patent US7582663B2, “Biaromatic compounds which activate PPARγ type receptors and cosmetic/pharmaceutical compositions comprised thereof” (Galderma Research & Development, priority 2002, dated 2009).
# Target: T1, PPARγ (Homo sapiens, UniProt P37231)
# T1 sequence (P37231 238-505 limits assumed): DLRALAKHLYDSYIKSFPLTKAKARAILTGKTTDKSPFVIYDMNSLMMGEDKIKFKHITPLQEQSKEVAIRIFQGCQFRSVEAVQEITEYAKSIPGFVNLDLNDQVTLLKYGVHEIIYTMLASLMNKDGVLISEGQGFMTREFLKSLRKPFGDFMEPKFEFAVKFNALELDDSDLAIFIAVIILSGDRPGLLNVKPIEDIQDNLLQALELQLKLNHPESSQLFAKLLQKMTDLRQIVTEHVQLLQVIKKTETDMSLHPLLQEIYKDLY
# Experiment: Crossed-curve PPAR transactivation test (PPARγ)
# Assay type: cell-based
# Conditions: HeLN cells stably transfected with Gal-hPPARγ and luciferase reporter; Schild regression against reference agonist; n.a. means not active; read-out: PPARγ Kd app
# Procedure: The activation of receptors with an agonist (activator) in HeLN cells leads to the expression of a reporter gene, luciferase, which, in the presence of a substrate, generates light. The modulation of the receptors is measured by quantifying the luminescence produced after incubating the cells in the presence of a reference agonist. The ligands displace the agonist from its site. The measurement of the activity is performed by quantifying the light produced. This measurement makes it possible to determine the modulatory activity of the compounds according to the invention by determining the constant that is the affinity of the molecule for the receptor. Since this value can fluctuate depending on the basal activity and the expression of the receptor, it is referred to as Kd apparent (KdApp in nM).
# This is 88 measurement points for 1 product and 1 receptor. The remaining 8 wells are used for repeatability controls.
# Measurements are also taken for total agonist controls with the same products.
# The HeLN cell lines used are stable transfectants containing the plasmids ERE-βGlob-Luc-SV-Neo (reporter gene) and PPAR (α, δ, γ) Gal-hPPAR. These cells are inoculated into 96-well plates at a rate of 10 000 cells per well in 100 μl of DMEM medium without phenol red and supplemented with 10% of defatted calf serum. The plates are then incubated at 37° C. and 7% CO2 for 16 hours.
# The various dilutions of the test products and of the reference ligand are added at a rate of 5 μl per well. The plates are then incubated for 18 hours at 37° C. and 7% CO2. The culture medium is removed by turning over and 100 μl of a 1:1 PBS/luciferine mixture are added to each well. After 5 minutes, the plates are read by the luminescence detector.
row,Kd,SMILES
1,250 nM,"CCCc1nnc(C(Cc2ccc(-c3cccc(CN(C)C(=O)c4ccc5cc(OCOCCOC)ccc5c4)c3)cc2)OCC)o1 (stereo not drawn) [Example 1, N-{4′-[2-ethoxy-2-(5-propyl[1,3,4]oxadiazol-2-yl)ethyl]biphenyl-3-ylmethyl}-N-methyl-6-(2-methoxyethoxymethoxy)naphthalene-2-carboxylamide]"
2,1000 nM,"CCCc1nnc(C(Cc2ccc(-c3cccc(CN(C)C(=O)c4ccc(Oc5ccccc5)cc4)c3)cc2)OCC)o1 (stereo not drawn) [Example 2, N-{4′-[2-ethoxy-2-(5-propyl[1,3,4]oxadiazol-2-yl)ethyl]biphenyl-3-ylmethyl}-N-methyl-4-phenoxybenzamide]"
3,250 nM,"CCCc1nnc(C(Cc2ccc(-c3cccc(CN(C)C(=O)c4ccc5cc(C(=O)OC)ccc5c4)c3)cc2)OCC)o1 (stereo not drawn) [Example 7, methyl 6-({4′-[2-ethoxy-2-(5-propyl[1,3,4]oxadiazol-2-yl)ethyl]biphenyl-3-ylmethyl}methylcarbamoyl)naphthalene-2-carboxylate]"
